# Values quoted from earlier work, collected in patent US8859560B2, “Treating attention deficit hyperactivity disorder with NHE inhibitors” (The Research Foundation of State University of New York, priority 2012, dated 2014).
# Columns and labels:
# [1] = tested on: sodium/hydrogen exchanger (NHE) subtypes; settings: for NHE subtype selectivity of inhibition: prior knowledge from Masereel et al. 2003
# [2] = pediatric patients, extended-release tablets (Jain et al. 2011)
Structure (SMILES),NHE subtype selectivity of inhibition [1],Efficacy as drug for ADHD [2],Inhibition of plasma membrane NHEs ([1]; plasma membrane NHEs (NHE1-NHE5))
CC(=Cc1cc(C)ccc1C=C(C)C(=O)NC(=N)N)C(=O)N=C(C)C [S3226],selectively inhibits NHE3,–,–
N=C(N)NC(=O)c1nc(Cl)c(N)nc1N [amiloride],limited NHE subtype selectivity,–,–
CC(C)c1ccc(C(=O)NC(=N)N)cc1S(C)(=O)=O [cariporide],selectively inhibits NHE1,–,–
Clc1cccc(Cl)c1N=C1NCCN1 [clonidine],–,moderately efficacious,modest inhibitor
COc1ccc2c3c([nH]c2c1)C(C)=NCC3 [harmaline],selectively inhibits NHE5,–,–
C=C[C@H]1C[N@@]2CC[C@H]1C[C@H]2[C@H](O)c1ccnc2ccc(OC)cc12 [quinine],selectively inhibits NHE7,–,–
